These results are taken from article PMC11567786 (ACS chemical biology, 2024).

For test [1], the target named is T1, Sm-EboD (Sporocytophaga myxococcoides, UniProt P0DY70).
T1 sequence (P0DY70 1-387): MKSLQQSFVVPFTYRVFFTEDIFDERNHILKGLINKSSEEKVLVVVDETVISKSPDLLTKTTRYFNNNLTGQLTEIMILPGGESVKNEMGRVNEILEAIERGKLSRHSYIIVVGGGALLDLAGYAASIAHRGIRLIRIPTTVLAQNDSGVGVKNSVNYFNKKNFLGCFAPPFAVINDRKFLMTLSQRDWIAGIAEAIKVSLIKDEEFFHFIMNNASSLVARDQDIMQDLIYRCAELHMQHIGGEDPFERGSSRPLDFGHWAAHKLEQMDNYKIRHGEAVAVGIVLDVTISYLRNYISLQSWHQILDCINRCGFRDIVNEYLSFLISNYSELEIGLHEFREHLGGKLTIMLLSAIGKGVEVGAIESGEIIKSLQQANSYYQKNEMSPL
The test is described as follows: large-scale reaction, HR-MS, 1D and 2D NMR of isolated product. It counts as biochemical. Particulars: NAD+, Co2+; Tris-HCl pH 7.5; 37°C.

For test [2], the target named is T1, Sm-EboD. Kind of test: TLC, product formation. The settings on record: NAD+, Co2+; Tris-HCl pH 7.5; 37°C. It counts as biochemical.

The structures appear in SMILES notation.

As to `O=C1C[C@@H](O)[C@@H](O)[C@@H](O)[C@@H]1O` [DEI, 2-deoxy-4-epi-scyllo-inosose], the “large-scale reaction, HR-MS, 1D and 2D NMR of isolated product” value at Sm-EboD [1] was “revealed the identity of the compound to be 2-deoxy-4-epi-scyllo-inosose (DEI)”. Consider `O=P(O)(O)OC[C@H]1OC(O)[C@@H](O)[C@@H](O)[C@@H]1O` (some centres unmarked) [Man6P], for which the “TLC, product formation” value on Sm-EboD [2] is listed as “gave the same product with an even better conversion rate”.
